A short description of experiment [1]: RKO cell viability reduction, dose response, CellTiter-Glo luminescence (AID 1117322). Type of experiment: functional.
Experiment [2] can be described thus: CellTiter-Glo luminescent dose response of DLD-1 viability loss (AID 1117352). Type of experiment: functional.
Experiment [3] in a line: cytotoxicity toward Colo320 cells – cell-based, CellTiter-Glo luminescence, IC50, dose response (AID 1117334). Type of experiment: functional. Conditions: COLO 320.
Experiment [4] is described as follows: HCT116 cell viability decrease, GSK3B pretreatment – CellTiter-Glo, IC50, dose response (AID 1117339). The class given is functional. As to conditions: HCT-116.
A short description of experiment [5]: cytotoxicity toward HT-29 cells – cell-based, CellTiter-Glo luminescence, IC50, dose response (AID 1117330). The class given is functional.
Experiment [6] is described as follows: SNU-C1 cell viability reduction, dose response, CellTiter-Glo luminescence (AID 1117323). The class given is functional, cell-based.
Experiment [7] concerns the target T1, Ubiquitin-conjugating enzyme E2 N (Homo sapiens, UniProt P61088).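 Note: Dose-response confirmation in a TR-FRET assay detecting UBC13-driven polyubiquitin chain formation, inhibition measured.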
T1 sequence (P61088 whole entry): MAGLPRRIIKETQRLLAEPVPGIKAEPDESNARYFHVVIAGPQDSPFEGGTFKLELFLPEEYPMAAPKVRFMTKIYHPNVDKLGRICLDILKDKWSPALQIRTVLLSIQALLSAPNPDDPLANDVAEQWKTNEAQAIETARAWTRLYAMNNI
The class given is functional.

The nature of experiment [8]: Concentration-dependent survival of SW480 colon cancer line, luminescence detection with CellTiter-Glo, half-maximal inhibitory concentration (AID 1117338). The class given is functional.
The target in experiment [9] is T2, DNA repair protein RAD52 homolog (Homo sapiens, UniProt P43351).
T2 sequence (P43351 whole entry): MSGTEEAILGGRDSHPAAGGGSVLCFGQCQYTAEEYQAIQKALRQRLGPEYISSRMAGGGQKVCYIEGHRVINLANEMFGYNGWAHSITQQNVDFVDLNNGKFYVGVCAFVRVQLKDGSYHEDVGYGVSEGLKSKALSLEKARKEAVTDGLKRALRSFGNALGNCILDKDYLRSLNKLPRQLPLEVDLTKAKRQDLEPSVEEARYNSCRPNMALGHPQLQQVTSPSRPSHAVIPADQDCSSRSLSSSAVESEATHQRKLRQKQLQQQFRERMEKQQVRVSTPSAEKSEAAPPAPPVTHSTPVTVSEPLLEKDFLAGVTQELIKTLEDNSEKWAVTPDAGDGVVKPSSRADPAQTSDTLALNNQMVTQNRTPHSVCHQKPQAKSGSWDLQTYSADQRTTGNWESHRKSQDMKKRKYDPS
The class given is functional, biochemical.

Experiment [10] in a line: cytotoxicity toward HCT116 cells – cell-based, CellTiter-Glo luminescence, IC50, dose response (AID 1117332). As to conditions: HCT-116. The class given is functional.
In another experiment the target is T3, Estrogen receptor (Homo sapiens, UniProt P03372).
T3 sequence (P03372 whole entry): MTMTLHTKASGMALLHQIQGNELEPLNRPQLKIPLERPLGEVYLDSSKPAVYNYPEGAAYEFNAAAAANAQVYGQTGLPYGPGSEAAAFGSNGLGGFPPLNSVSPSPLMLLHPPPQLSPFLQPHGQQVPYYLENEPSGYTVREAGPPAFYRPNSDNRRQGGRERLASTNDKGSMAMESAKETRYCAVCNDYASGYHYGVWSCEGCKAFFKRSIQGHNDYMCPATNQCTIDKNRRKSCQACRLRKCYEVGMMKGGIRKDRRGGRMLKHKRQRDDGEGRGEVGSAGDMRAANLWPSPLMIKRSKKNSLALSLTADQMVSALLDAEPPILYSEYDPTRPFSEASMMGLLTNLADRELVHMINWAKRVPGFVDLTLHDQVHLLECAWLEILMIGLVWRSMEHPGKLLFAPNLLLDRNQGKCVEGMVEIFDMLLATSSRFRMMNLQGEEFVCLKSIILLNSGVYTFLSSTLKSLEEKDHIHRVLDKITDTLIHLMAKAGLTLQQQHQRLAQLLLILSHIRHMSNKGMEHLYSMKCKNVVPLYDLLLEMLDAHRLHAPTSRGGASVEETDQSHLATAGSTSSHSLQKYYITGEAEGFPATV

The target in a further experiment is Prothrombin (Homo sapiens, UniProt P00734). Put plainly: Thrombin 1536 HTS Dose Response Confirmation. [Related pubchem assays: 1046 (Thrombin 1536 HTS; hits were confirmed in this assay)]. The class given is functional.
A further experiment has as its target Estrogen receptor beta (Homo sapiens, UniProt Q92731).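 Note: recombinant ER-beta bound to coactivator SRC1 peptide in presence of estradiol agonist; inhibitors block coactivator peptide binding and lower the FRET signal.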
Experiment [11] has as its target T4, Heat shock factor protein 1 (Mus musculus, UniProt P38532).
T4 sequence (P38532 whole entry): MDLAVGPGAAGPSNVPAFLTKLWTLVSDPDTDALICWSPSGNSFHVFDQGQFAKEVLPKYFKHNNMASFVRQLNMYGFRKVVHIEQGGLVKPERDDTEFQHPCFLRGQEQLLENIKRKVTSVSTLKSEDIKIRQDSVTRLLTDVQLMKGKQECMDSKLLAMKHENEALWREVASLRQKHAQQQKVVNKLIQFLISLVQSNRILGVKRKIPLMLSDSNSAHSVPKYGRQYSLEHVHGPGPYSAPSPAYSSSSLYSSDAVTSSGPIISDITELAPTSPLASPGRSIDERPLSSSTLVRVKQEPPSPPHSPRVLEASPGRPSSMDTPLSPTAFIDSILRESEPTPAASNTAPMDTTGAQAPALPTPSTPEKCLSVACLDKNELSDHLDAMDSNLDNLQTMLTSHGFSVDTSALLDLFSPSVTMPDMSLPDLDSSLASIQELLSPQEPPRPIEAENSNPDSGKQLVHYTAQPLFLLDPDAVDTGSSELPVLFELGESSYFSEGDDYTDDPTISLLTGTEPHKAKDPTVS
Put plainly: inhibition of MG132-induced HSE-luciferase signal, confirmation, cell-based, NIH3T3, luminescence, dose retest (AID 2382).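 Note: NIH3T3 fibroblasts with HSF1-driven luciferase reporter stressed by proteasome inhibitor MG132; luminescence from HSF1-driven luciferase expression after 8 hours of MG132 stress.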 The class given is functional.

The target of another experiment is T5, Aminopeptidase N (Plasmodium falciparum FcB1/Columbia, UniProt O96935).
T5 sequence (O96935 whole entry): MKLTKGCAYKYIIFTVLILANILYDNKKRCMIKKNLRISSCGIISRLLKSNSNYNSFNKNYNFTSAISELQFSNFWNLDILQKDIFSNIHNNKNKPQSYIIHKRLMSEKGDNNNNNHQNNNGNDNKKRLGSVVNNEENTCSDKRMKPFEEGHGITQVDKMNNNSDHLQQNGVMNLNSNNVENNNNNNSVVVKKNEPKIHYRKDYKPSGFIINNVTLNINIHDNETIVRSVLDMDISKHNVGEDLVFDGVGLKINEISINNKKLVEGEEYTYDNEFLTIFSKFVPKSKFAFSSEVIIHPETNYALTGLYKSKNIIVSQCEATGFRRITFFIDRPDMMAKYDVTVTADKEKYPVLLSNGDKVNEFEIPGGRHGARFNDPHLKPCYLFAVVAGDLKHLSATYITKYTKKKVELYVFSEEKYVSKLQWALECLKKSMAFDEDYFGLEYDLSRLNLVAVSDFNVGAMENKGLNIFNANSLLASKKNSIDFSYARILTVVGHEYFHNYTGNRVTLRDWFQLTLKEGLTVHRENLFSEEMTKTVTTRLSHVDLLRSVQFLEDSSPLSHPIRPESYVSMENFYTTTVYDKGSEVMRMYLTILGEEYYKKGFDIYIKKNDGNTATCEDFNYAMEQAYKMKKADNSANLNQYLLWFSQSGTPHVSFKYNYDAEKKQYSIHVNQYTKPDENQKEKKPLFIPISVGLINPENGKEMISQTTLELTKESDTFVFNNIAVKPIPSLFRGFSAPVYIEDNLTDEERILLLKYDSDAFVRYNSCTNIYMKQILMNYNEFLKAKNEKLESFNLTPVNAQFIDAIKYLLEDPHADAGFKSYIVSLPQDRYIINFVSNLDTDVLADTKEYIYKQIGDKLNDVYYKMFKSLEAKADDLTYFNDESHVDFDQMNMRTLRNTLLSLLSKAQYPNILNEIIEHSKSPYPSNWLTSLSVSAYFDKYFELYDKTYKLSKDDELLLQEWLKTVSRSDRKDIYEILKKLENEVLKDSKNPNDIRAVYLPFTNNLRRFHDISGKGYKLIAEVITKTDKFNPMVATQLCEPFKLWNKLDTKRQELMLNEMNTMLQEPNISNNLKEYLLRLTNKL
Nature of the experiment: P. falciparum M1AAP inhibitors, biochemical, fluorogenic H-Leu-NHMec substrate, 1536-well (AID 1445). On the set-up: species or system Plasmodium falciparum 3D7, 3D7.

A further experiment deals with Cytochrome P450 2D6 (Homo sapiens, UniProt P10635).
Chain of Cytochrome P450 2D6 (P10635 whole entry): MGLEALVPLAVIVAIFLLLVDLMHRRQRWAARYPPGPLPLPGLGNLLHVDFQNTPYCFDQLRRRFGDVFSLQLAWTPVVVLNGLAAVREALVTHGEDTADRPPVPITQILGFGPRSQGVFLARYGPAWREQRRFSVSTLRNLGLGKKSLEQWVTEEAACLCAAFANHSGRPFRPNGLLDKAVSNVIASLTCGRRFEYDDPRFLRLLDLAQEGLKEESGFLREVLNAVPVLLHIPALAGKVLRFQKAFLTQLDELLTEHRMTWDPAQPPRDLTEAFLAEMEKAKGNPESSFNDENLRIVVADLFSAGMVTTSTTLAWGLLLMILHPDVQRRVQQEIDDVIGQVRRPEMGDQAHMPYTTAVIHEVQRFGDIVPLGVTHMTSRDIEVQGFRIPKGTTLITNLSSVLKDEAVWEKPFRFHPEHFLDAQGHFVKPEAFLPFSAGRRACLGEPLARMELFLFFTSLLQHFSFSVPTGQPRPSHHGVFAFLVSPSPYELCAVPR
For the next experiment, the target named is T6, Cytochrome P450 1A2 (Homo sapiens, UniProt P05177).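 Note: PubChem cytochrome P450 panel assay, CYP1A2 panel member.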
T6 sequence (P05177 whole entry): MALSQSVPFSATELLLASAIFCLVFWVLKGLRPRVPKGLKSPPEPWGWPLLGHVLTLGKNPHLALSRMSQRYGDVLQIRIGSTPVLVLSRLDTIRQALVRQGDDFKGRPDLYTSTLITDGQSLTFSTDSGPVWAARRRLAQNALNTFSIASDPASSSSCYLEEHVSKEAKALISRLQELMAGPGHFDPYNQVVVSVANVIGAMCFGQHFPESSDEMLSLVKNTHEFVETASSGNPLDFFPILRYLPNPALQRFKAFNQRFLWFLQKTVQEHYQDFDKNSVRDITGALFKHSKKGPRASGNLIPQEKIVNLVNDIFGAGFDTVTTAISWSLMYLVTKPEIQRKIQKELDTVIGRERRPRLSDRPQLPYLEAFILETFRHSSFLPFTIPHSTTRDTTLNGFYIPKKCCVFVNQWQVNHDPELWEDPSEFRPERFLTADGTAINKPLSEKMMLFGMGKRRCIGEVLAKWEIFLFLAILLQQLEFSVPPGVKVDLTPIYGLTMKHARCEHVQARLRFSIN

Counter-ions that a name gives are not always drawn. Calls of active or inactive are those of the source. Some results are limits rather than exact numbers.

Chain of Estrogen receptor beta (Q92731 whole entry): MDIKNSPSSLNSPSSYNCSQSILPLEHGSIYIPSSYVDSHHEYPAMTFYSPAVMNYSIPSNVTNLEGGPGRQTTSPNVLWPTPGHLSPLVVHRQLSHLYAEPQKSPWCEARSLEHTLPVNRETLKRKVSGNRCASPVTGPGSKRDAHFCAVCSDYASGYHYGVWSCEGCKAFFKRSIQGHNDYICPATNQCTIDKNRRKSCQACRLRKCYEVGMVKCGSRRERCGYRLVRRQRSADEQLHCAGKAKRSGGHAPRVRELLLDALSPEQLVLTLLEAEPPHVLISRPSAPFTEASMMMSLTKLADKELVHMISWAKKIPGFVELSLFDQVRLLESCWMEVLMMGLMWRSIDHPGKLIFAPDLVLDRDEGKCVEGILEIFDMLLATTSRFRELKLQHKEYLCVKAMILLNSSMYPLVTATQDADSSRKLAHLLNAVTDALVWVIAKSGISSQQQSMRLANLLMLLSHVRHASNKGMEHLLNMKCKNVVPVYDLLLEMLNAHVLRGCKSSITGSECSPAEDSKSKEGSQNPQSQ

Regarding `CN1CCN(C2Cc3ccccc3Sc3ccc(Cl)cc32)CC1` (centres undefined), the IC50 is > 20 µM (inactive) in [1]; > 20 µM (inactive) in experiment [2]; > 6.67 µM (inactive) in experiment [3]; 8.4 µM (inactive) in experiment [4]; 8 µM (inactive) in [5]; 7.87 µM (inactive) in experiment [6]. Moreover, the IC50 in experiment [7] was > 20 µM (inactive); in experiment [8], 6.31 µM (inactive); in experiment [10], 9.17 µM (inactive). The AC50 in experiment [9] is 22.5 µM (active).

With `C=CCn1c(SCC(=O)NC2CCCCC2)nnc1C(C)NC(=O)c1cccs1` (centres undefined), the IC50 against Estrogen receptor is recorded as > 50 µM (not active).

Consider `Cc1nc2ccccc2c(=O)n1NC(=O)c1cc(Br)ccc1Cl`, for which the IC50 against Prothrombin was > 50 µM (not active).

Consider `Cc1nn(Cc2ccccc2Cl)c(C)c1C(=O)NCc1ccco1`, for which, on Estrogen receptor beta, the IC50 is > 50 µM (not active).

As for `Cc1occc1C(=O)Nc1cc(C(F)(F)F)ccc1Cl`, the IC50 on Prothrombin is listed as > 50 µM (not active). Moreover, the EC50 in experiment [11] is > 195 µM (not active).

In the case of `Cc1ccc(-c2nc(N)n(C(=O)Cc3ccccc3)n2)cc1`, at Prothrombin, the IC50 was 1.82 µM (active).

Consider `O=c1[nH]c2ccc(Br)cc2c(-c2ccccc2)c1CN1CCOCC1`, for which the IC50 on Aminopeptidase N is 54.2 µM (active).

Take `O=c1[nH]c(SCc2ccccc2Cl)nc2n[nH]cc12`: the IC50 at Aminopeptidase N was 9.3 µM (active).

Take `Nc1nc(-c2cccnc2)nn1C(=O)c1ccccc1Cl`: at Prothrombin, the IC50 is 0.0831 µM (active).

`CCCCCCOC(=O)c1cccnc1`: the IC50 in experiment [1], in experiment [2], in experiment [3], in experiment [4], in experiment [5] and in experiment [6] was > 20 µM (inactive) in each case. Further, the IC50 in [8] and in experiment [10] was > 20 µM (inactive) in each case.

`Cc1cccc(NC2=NC(=O)/C(=C3/C(=O)N(C)c4ccccc43)S2)c1C`: at Estrogen receptor, the IC50 is given as 32.9 µM (not active).

Turning to `CN(C)[C@@H](CCOc1cccc2ccccc12)c1ccccc1` [DAPOXETINE], the IC50 in [1] is 8.11 µM (inactive); in experiment [2] it was > 20 µM (inactive); in experiment [3], > 20 µM (inactive); in [4], 9.86 µM (inactive); in [5], > 20 µM (inactive); in [6], 12.8 µM (inactive). Besides, the IC50 in experiment [8] and in experiment [10] was > 20 µM (inactive) in each case.

In the case of `CC(=O)NC(=O)c1ccccc1O` [SALACETAMIDE], the IC50 in experiment [1], in [2], in experiment [3], in [4], in experiment [5] and in experiment [6] was > 20 µM (inactive) throughout. Besides, the IC50 in experiment [8] and in [10] was > 20 µM (inactive) in each case.

Regarding `CN1CCN(CCCN2c3ccccc3Sc3ccc(S(=O)(=O)N(C)C)cc32)CC1` [THIOPROPERAZINE MESYLATE], the IC50 in [1] was 5.99 µM (inactive); in experiment [2], 14.6 µM (inactive); in [3] it was 8.17 µM (inactive); in experiment [4] it was > 20 µM (inactive); in experiment [5], > 20 µM (inactive); in [6], 2.12 µM (active). In addition, the IC50 in experiment [8] and in [10] was > 20 µM (inactive) each time. Moreover, the AC50 was 6.31 µM (inconclusive) on Cytochrome P450 2D6 and 12.6 µM (inconclusive) on Cytochrome P450 1A2.

Values taken from ChEMBL document CHEMBL1201862, “PubChem BioAssay data set” (2004).
